Results from ChEMBL document CHEMBL5543064, “Interleukin-1β converting enzyme (ICE): A comprehensive review on discovery and development of caspase-1 inhibitors” (Eur J Med Chem, 2023).

Molecular target: T1, Caspase-1 (Homo sapiens, UniProt P29466)
T1 sequence (P29466 whole entry): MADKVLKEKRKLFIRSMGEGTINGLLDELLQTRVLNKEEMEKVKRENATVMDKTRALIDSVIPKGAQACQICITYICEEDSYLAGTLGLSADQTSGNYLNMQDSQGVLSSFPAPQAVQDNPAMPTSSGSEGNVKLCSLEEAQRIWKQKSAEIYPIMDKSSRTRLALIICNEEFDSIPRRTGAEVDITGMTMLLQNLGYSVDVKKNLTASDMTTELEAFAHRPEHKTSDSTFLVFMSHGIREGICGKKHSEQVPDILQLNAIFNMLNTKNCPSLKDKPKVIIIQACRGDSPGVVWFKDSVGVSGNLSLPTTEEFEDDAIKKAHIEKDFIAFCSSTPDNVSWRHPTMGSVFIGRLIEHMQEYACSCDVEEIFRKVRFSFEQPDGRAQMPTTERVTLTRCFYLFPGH
Experiment: Inhibition of caspase-1 (unknown origin) by fluorescence based analysis
Details: not given

| SMILES | IC50 [nM] |
| --- | --- |
| O=C1C[C@H](NC(=O)[C@@H]2CCCN3C(=O)CC[C@H](NC(=O)c4nccc5ccccc45)C(=O)N23)[C@H](O)O1 | 1.3 |

Molecular target: T2, Caspase-8 (Homo sapiens, UniProt Q14790)
Experiment: Inhibition of caspase-8 (unknown origin) by fluorescence based analysis
Details: not given

T2 sequence (Q14790 217-374 limits assumed): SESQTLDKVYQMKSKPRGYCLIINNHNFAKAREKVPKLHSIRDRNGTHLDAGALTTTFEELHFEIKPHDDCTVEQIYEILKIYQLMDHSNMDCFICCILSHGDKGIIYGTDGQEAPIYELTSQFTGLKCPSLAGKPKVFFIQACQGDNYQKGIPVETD
T2 sequence (Q14790 385-479 limits assumed): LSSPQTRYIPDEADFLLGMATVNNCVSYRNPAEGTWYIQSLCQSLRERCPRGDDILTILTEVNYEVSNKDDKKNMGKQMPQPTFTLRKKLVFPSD

| SMILES | IC50 [nM] |
| --- | --- |
| O=C1C[C@H](NC(=O)[C@@H]2CCCN3C(=O)CC[C@H](NC(=O)c4nccc5ccccc45)C(=O)N23)[C@H](O)O1 | 0.12 |

Test system: not listed separately
Experiment: Oral bioavailability in rat
Format: ADME, organism-based
Details: in vivo

| SMILES | bioavailability [%] |
| --- | --- |
| O=C1C[C@H](NC(=O)[C@@H]2CCCN3C(=O)CC[C@H](NC(=O)c4nccc5ccccc45)C(=O)N23)[C@H](O)O1 | 4 |

Test system: not listed separately
Experiment: Toxicity in Sprague-Dawley rat assessed as […] mortality at 12.5 micromol/kg
Details: in vivo, 12.5 µmol/kg

| SMILES | mortality [%] |
| --- | --- |
| CC(=O)C[C@@H](C(=O)CCl)N(C(=O)[C@@H](NC(=O)[C@H](Cc1ccc(O)cc1)NC(C)=O)C(C)C)[C@@H](C)C(N)=O | 33 |

Molecular target: T1, Caspase-1
Experiment: Inhibition of Caspase-1 (unknown origin)
Details: not given

| SMILES | IC50 [nM] |
| --- | --- |
| CC(C)C(NC(=O)c1ccc2ccccc2c1)C(=O)N[C@@H](C)C(=O)N[C@H](CN=[N+]=[N-])CC(=O)O (some centres not stated) | 4.6 |
| C[C@H](NC(=O)C(NC(=O)c1ccc2ccccc2c1)C(=O)O)C(=O)N[C@H](CN=[N+]=[N-])CC(=O)O (some centres not stated) | 40 |
| CC(C)C(NC(=O)OCc1ccccc1)C(=O)N[C@@H](C)C(=O)NC(CC(=O)O)C(=O)CNS(=O)(=O)CCc1ccccc1 (some centres not stated) | 700 |
| O=C[C@H](CC(=O)O)NS(=O)(=O)c1ccccc1-c1cccc2ccccc12 | 11400 |
| CCC(C)(C)c1ccc(Oc2ccccc2S(=O)(=O)N[C@H](C=O)CC(=O)O)cc1 | 2200 |
| Cc1cc(Oc2ccccc2S(=O)(=O)N[C@H](C=O)CC(=O)O)ccc1C(C)C | 1000 |
| C[C@H](NC(=O)[C@H](CCC(=O)O)NC(=O)OCc1ccccc1)C(=O)NC(CC(=O)O)C(=O)CNS(=O)(=O)CCc1ccccc1 (some centres not stated) | 20 |
| CCC(C)(C)c1ccc(Oc2ccccc2S(=O)(=O)N[C@H](C=O)CC(=O)O)cc1C | 1000 |
| C[C@H](NC(=O)C(NC(=O)c1cc2ccccc2[nH]1)C(=O)O)C(=O)N[C@H](CN=[N+]=[N-])CC(=O)O (some centres not stated) | 75 |
| CC(C)(NC(=O)CNC(=O)c1ccc2ccccc2c1)C(=O)N[C@H](CN=[N+]=[N-])CC(=O)O | 7.9 |
| Cc1cccc(S(=O)(=O)N[C@H](C=O)CC(=O)O)c1-c1ccccc1 | 34400 |

Molecular target: T1, Caspase-1
Experiment: Binding affinity to caspase-1 (unknown origin) assessed as inhibition constant
Details: not given

| SMILES | Ki [nM] |
| --- | --- |
| CC(C)C(NC(=O)OCc1ccccc1)C(=O)N[C@@H](C)C(=O)NC(CC(=O)O)C(=O)CNS(=O)(=O)CCc1ccccc1 (some centres not stated) | 4 |
| C[C@H](NC(=O)[C@H](CCC(=O)O)NC(=O)OCc1ccccc1)C(=O)NC(CC(=O)O)C(=O)CNS(=O)(=O)CCc1ccccc1 (some centres not stated) | 20 |
| O=C(CN1C(=O)[C@H](NC(=O)c2ccccc2)CN(C(=O)CCc2ccccc2)c2ccccc21)N[C@H]1CC(=O)OC1O (some centres not stated) | 850 |

Molecular target: T1, Caspase-1
Experiment: Binding affinity to human caspase-1 assessed as apparent inhibition constant
Details: read-out: Ki(app)

| SMILES | Ki [nM] |
| --- | --- |
| O=C[C@H](CC(=O)O)NC(=O)CCCCCNC(=O)c1ccc(Nc2cnc3ccccc3n2)cc1 | 150 |

Molecular target: T2, Caspase-8
Experiment: Binding affinity to Caspase-8 (unknown origin) using Ac-IETD-AFC as substrate assessed as inhibition constant
Details: not given

| SMILES | Ki [nM] |
| --- | --- |
| CC(C)[C@H](NC(=O)CCc1ccccc1)C(=O)N[C@@H](C)C(=O)N[C@@H](CC(=O)O)C(=O)CCCc1ccccc1 | 100 |
| CC(=O)N[C@@H](Cc1ccc(O)cc1)C(=O)N[C@H](C(=O)N[C@@H](C)C(=O)N[C@@H](CC(=O)O)C(=O)CCCCc1ccccc1)C(C)C | 42 |
| CC(=O)N[C@@H](Cc1ccc(O)cc1)C(=O)N[C@H](C(=O)N[C@@H](C)C(=O)N[C@@H](CC(=O)O)C(=O)CCCCCc1ccccc1)C(C)C | 18.5 |
| CC(C)[C@H](NC(=O)CCc1ccccc1)C(=O)N[C@@H](C)C(=O)N[C@@H](CC(=O)O)C(=O)CCc1ccccc1 | 610 |

Molecular target: T1, Caspase-1
Experiment: Binding affinity to N-terminal His-tagged Caspase-1 (unknown origin) assessed as inhibition constant
Details: not given

| SMILES | Ki [nM] |
| --- | --- |
| CC(=O)N[C@H](C(=O)N[C@@H](CC(=O)O)C(=O)COC(=O)Cc1c(Cl)ccc(Cl)c1Cl)C(C)C | 113 |
| CC(=O)N[C@H](C(=O)N[C@@H](CC(=O)O)C(=O)COC(=O)Cc1c(Cl)cccc1Cl)C(C)C | 80 |

Molecular target: T1, Caspase-1
Experiment: Inhibition of N-terminal His-tagged Caspase-1 (unknown origin)
Details: not given

| SMILES | IC50 [nM] |
| --- | --- |
| COC(=O)CC(NC(=O)C(NC(=O)OCc1ccccc1)c1ccccc1)C(=O)COC(=O)c1ccccc1 (configuration not stated) | 5560 |
| O=C(O)CC(NC(=O)C(NC(=O)OCc1ccccc1)c1ccccc1)C(=O)COC(=O)c1ccccc1 (configuration not stated) | 820 |

Molecular target: T1, Caspase-1
Experiment: Inhibition of caspase-1 (unknown origin) using Ac-Tyr-Val-Ala-Asp-AFC as fluorogenic substrate by fluorescence based analysis
Details: not given

| SMILES | IC50 [nM] |
| --- | --- |
| CCCCN(CC(=O)N[C@@H](CC(=O)O)C(=O)COc1ccccc1)C(=O)[C@@H](NC(=O)c1ccc2ccccc2c1)C(C)C | 22 |
| CC(C)[C@H](NC(=O)c1ccc2ccccc2c1)C(=O)N1CCC[C@H]1C(=O)N[C@H](C=O)CC(=O)NS(C)(=O)=O | 38 |
| CC(C)[C@H](NC(=O)c1ccc2ccccc2c1)C(=O)N(CCCn1ccnc1)CC(=O)N[C@@H](CC(=O)O)C(=O)COc1ccccc1 | 13 |

Molecular target: Interleukin-1 beta (Homo sapiens) (UniProt P01584)
Experiment: Inhibition of human Interleukin-1beta at 30 uM relative to control
Details: not given

Sequence of Interleukin-1 beta (Homo sapiens) (P01584 117-269 limits assumed): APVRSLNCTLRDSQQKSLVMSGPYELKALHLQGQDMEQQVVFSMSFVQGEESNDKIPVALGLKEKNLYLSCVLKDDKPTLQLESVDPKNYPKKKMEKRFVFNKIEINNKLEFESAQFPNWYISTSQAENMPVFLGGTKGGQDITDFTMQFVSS

| SMILES | inhibition [%] |
| --- | --- |
| O=c1cc(-c2ccccc2Cl)sn1-c1ccc(C(F)(F)F)cc1 | 83 |
| CCOC(=O)c1ccc(-n2sc(-c3ccccc3Cl)cc2=O)cc1 | 87 |
| N#Cc1ccc(-n2sc(-c3ccccc3Cl)cc2=O)cc1 | 89 |

Molecular target: T1, Caspase-1
Experiment: Inhibition of Interleukin-1beta-converting enzyme (unknown origin)
Details: not given

| SMILES | IC50 [nM] |
| --- | --- |
| COC(=O)[C@]1(C)CC[C@]2(C)CC[C@]3(C)C4=CCc5c(cc(OC(C)=O)c(OC(C)=O)c5C)[C@]4(C)CC[C@@]3(C)[C@@H]2C1 [PRISTIMEROL DIACETATE] | 79 |
| COC(=O)c1ccc(NC(=O)CCCCC(=O)Nc2ccc3c(c2)C(=O)C(=O)NC3=O)cc1 | 19 |
| COC(=O)[C@]1(C)CC[C@]2(C)CC[C@]3(C)C4=CC=C5C(=CC(=O)C(O)=C5C)[C@]4(C)CC[C@@]3(C)[C@@H]2C1 [PRISTIMERIN] | 56 |
| CC1=C(O)C(=O)C=C2C1=CC=C1[C@@]2(C)CC[C@@]2(C)[C@@H]3C[C@@H](C)C(=O)C[C@]3(C)CC[C@]12C [TINGENONE] | 58 |
| CC1=C(O)C(=O)C=C2C1=CC=C1[C@@]2(C)CC[C@@]2(C)[C@@H]3C[C@](C)(C(=O)O)CC[C@]3(C)CC[C@]12C [CELASTROL] | 40 |

Molecular target: Caspase-1 (Homo sapiens) (UniProt P29466)
Experiment: Binding affinity to caspase-1 (unknown origin) assessed as inhibition constant
Details: not given

| SMILES | Ki [nM] |
| --- | --- |
| O=CC(CC(=O)O)NC(=O)Cn1c(Cc2ccccc2)ccc(NC(=O)CCc2ccccc2)c1=O (single isomer, unassigned) | 150 |
| O=C[C@H](CC(=O)O)NC(=O)[C@@H]1CCCN2C(=O)CC[C@H](NC(=O)c3ccc(OCC(=O)O)cc3)C(=O)N12 | 1 |
| O=C[C@H](CC(=O)O)NC(=O)Cn1c(-c2ccccc2)ccc(NC(=O)CCc2ccccc2)c1=O | 900 |
| CC(C(=O)NC(C=O)CC(=O)O)n1c(Cc2ccccc2)ccc(NC(=O)CCc2ccccc2)c1=O (single isomer, unassigned) | 970 |
